In article PMC11593465, “Na^+ Translocation Dominates over H^+-Translocation in the Membrane Pyrophosphatase with Dual Transport Specificity” (International Journal of Molecular Sciences, 2024):

How the values were obtained:
[1] = target: T1, Da-mPPase (Na+-translocating mPPase of Desulfuromonas acetoxidans) (Desulfuromonas acetoxidans, UniProt Q1JY39); test: PPi hydrolysis (continuous Pi assay) and pyranine Na+ transport assay, membrane vesicles; format: biochemical; conditions: 150 µM PPi, 5 mM MgSO4, 5 mM Na2SO4, 25 mM K2SO4, 100 mM Mops-KOH pH 7.2
T1 construct: gene hppA; recombinant, expressed in E. coli C41(DE3), in inverted membrane vesicles; homodimer of approx. 70-kDa subunits

[2] = target: T2, Dh-mPPase (H+-translocating mPPase of Desulfitobacterium hafniense) (Desulfitobacterium hafniense, UniProt B8FXV7); test: PPi hydrolysis (continuous Pi assay) and pyranine H+ transport assay, membrane vesicles; format: biochemical; conditions: 150 µM PPi, 5 mM MgSO4, 5 mM Na2SO4, 25 mM K2SO4, 100 mM Mops-KOH pH 7.2
T2 construct: gene hppA; recombinant, expressed in E. coli C41(DE3), in inverted membrane vesicles; homodimer of approx. 70-kDa subunits
T2 sequence (B8FXV7 1-671): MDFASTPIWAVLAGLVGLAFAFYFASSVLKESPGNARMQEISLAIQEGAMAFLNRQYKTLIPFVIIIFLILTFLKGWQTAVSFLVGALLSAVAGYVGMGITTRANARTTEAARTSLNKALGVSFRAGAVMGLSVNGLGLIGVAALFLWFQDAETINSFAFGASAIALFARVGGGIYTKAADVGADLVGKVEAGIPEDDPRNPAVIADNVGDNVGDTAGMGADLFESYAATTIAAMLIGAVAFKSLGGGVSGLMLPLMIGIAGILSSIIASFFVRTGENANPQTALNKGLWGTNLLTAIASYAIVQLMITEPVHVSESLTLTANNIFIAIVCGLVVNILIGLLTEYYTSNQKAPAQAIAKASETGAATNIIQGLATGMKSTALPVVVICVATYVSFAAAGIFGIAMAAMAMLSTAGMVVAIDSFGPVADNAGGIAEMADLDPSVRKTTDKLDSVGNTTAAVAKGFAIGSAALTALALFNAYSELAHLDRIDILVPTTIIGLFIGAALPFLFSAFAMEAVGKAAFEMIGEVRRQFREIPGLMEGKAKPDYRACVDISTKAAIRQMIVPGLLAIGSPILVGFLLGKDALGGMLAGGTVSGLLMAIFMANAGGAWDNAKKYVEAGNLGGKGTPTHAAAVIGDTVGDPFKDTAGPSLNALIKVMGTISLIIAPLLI

[3] = substrate: O=P(O)(O)OP(=O)(O)O; test: cells, lysate or membranes; format: biochemical, Phocaeicola vulgatus; conditions: total PPi, first (stronger) of two sites in the dimer, macroscopic constant, 4.8 mM free Mg2+, 10 mM Na+ (5 mM Na2SO4), 25 mM K2SO4, 100 mM Mops-KOH pH 7.2, 25 °C

T1 sequence (Q1JY39 1-668): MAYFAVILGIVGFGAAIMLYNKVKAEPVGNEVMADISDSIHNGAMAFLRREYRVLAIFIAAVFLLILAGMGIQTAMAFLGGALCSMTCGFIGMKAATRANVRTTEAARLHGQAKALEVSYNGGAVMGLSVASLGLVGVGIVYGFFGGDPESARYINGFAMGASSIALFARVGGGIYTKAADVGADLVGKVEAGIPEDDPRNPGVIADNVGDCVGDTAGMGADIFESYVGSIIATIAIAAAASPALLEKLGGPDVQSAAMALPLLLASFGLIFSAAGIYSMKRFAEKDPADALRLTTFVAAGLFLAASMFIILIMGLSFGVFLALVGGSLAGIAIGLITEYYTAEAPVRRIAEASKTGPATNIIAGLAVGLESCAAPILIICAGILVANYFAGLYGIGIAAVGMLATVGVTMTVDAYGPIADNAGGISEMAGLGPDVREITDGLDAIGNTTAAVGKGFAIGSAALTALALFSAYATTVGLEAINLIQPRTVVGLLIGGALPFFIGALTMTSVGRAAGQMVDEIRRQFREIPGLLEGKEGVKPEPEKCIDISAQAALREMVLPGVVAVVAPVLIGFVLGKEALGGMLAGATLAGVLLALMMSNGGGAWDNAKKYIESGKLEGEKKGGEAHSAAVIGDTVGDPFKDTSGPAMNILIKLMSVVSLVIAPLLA

For `O=P(O)(O)OP(=O)(O)O` [PPi], the “PPi hydrolysis (continuous Pi assay) and pyranine Na+ transport assay, membrane” value [1] was “Na^+-translocating Da-mPPase caused monensin-sensitive alkalinization of the vesicle lumen in response to PPi addition” and the “PPi hydrolysis (continuous Pi assay) and pyranine H+ transport assay, membrane v” value [2] was “the PPi addition to Dh-mPPase-containing vesicles progressively decreased pyranine fluorescence”.

B1: Bv-mPPase (Bacteroides vulgatus Na+,H+-translocating mPPase) (Phocaeicola vulgatus ATCC 8482) (protein)
chain: METYLFWIVPIASLLALVLAWYFYKQMMLESEGTPTMEKIASYVRQGAMSYLKQQYKVVGLVFLGLVILFSIMAYGFNLQNPWVPIAFLTGGFFSGLSGFLGMKTATYASARTANAAQHSLNKGLRVAFRSGAVMGLVVVGLGLLDISFWYILLDYCIPTDALNPSAKLCVITTTMLTFGMGASTQALFARVGGGIYTKAADVGADLVGKVEAGIPEDDPRNPATIADNVGDNVGDVAGMGADLYESYCGSILATAALGAAAFIGSDDTVMQFKAVIAPMLIAAVGIVLSIIGIFAVRTKENAGMKELLGSLATGTNLSSVLIVVATFLILWALGLENWVNISFAVVVGLIVGIVIGRSTEYYTSQSYKPTQRLAESGKTGPATVIISGIGLGMVSTTIPVLAVVTGIILSYWLASGFDFANISMGLYGIGIAAVGMLSTLGITLATDAYGPIADNAGGNAEMSGLGKEVRKRTDALDSLGNTTAATGKGFAIGSAALTGLALLASYVEEIRIGLTRLGQTILELPNGITVDVHNASFTDYMLYYDVTLMNPKVLSGMFLGSMMAFLFCGLTMNAVGRAAAHMVEEVRRQFREIKGILTGEAEPDYARCVQISTKGAQREMVFPSLLAIIAPIATGLIFGVPGVIGLLIGGLSSGFVLAIFMANAGGAWDNAKKFIEEGNFGGKGSEVHKATVTGDTVGDPFKDTSGPSLNILIKLMSMVAIVMAGLTVAWSLF
notes: recombinant, expressed in E. coli C41(DE3), in inverted membrane vesicles; homodimer of approx. 70-kDa subunits; EC 7.1.3.1
B1 was tested, and the Km [3] was 15 ± 1 µM.
